Assays:
Test in all cases: KINOMEscan competition binding assay
[1] = molecular target: T1, BMPR2 (Homo sapiens, UniProt Q13873); conditions: LL6 at 10 μM; read-out: Percent Control
T1 construct: purchased DiscoverX KINOMEscan
Experimental: (§1) Kd values were obtained by KINOMEscan from DiscoverX (San Diego, CA, USA). To briefly summarize, Kd was measured by a competition binding assay that quantitatively measures the ability of a compound to compete with an immobilized ligand. […] Dose response curves of 11 points are obtained for Kd values, which are measured in duplicate. See more details in the cited references [39]-[42] and see also at www.discoverx.com.

[2] = molecular target: T2, BTK (Homo sapiens, UniProt Q06187); conditions: LL6 at 10 μM; read-out: Percent Control
T2 construct: purchased DiscoverX KINOMEscan
Experimental: as §1

[3] = molecular target: T3, CDK11 (Homo sapiens, UniProt Q9BWU1); conditions: LL6 at 10 μM; read-out: Percent Control
T3 construct: purchased DiscoverX KINOMEscan
Experimental: as §1

[4] = molecular target: T4, CDK7 (Homo sapiens, UniProt P50613); conditions: LL6 at 10 μM; read-out: Percent Control
T4 construct: purchased DiscoverX KINOMEscan
T4 sequence (P50613 whole entry): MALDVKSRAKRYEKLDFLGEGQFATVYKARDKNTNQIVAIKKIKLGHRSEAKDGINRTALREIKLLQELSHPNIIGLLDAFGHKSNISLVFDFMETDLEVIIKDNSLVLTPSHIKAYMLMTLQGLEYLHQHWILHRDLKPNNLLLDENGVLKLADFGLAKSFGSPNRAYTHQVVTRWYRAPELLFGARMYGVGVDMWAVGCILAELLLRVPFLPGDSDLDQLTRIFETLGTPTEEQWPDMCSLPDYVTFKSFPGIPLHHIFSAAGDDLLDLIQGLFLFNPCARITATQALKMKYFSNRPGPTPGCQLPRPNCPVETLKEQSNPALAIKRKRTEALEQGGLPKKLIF
Experimental: as §1

[5] = molecular target: T5, CSF1R (Homo sapiens, UniProt P07333)
T5 construct: purchased DiscoverX (KINOMEscan service)
T5 sequence (P07333 20-972): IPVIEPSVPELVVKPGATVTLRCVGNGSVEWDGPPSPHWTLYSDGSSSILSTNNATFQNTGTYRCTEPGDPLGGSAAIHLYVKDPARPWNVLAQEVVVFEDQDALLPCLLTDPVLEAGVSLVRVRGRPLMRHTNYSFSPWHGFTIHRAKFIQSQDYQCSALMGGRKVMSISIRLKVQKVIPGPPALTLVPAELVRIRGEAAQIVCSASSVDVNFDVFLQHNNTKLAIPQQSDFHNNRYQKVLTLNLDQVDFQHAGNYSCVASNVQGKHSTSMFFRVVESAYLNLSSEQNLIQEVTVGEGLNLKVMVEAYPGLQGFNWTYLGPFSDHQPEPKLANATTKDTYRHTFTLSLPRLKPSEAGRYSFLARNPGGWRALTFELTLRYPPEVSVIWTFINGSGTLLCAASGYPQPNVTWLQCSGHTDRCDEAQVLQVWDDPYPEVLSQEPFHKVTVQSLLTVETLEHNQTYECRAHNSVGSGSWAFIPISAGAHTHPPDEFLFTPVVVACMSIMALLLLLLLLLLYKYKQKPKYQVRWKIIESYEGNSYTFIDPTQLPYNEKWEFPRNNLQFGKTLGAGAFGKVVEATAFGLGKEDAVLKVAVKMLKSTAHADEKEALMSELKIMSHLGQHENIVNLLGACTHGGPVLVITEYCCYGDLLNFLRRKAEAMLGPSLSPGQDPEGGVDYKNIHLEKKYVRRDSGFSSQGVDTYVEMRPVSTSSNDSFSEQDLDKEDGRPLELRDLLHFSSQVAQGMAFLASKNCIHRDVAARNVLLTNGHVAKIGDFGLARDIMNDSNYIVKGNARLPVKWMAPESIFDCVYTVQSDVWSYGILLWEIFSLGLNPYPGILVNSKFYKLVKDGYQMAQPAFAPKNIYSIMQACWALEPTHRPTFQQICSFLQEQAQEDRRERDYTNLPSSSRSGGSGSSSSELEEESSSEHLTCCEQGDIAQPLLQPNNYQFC
Experimental: as §1

[6] = molecular target: T6, DYRK1B (Homo sapiens, UniProt Q9Y463); conditions: LL6 at 10 μM; read-out: Percent Control
T6 construct: purchased DiscoverX KINOMEscan
Experimental: as §1

[7] = molecular target: T7, EGFR (Homo sapiens, UniProt P00533); conditions: LL6 at 10 μM; read-out: Percent Control
T7 construct: purchased DiscoverX KINOMEscan
T7 sequence (P00533 25-1210): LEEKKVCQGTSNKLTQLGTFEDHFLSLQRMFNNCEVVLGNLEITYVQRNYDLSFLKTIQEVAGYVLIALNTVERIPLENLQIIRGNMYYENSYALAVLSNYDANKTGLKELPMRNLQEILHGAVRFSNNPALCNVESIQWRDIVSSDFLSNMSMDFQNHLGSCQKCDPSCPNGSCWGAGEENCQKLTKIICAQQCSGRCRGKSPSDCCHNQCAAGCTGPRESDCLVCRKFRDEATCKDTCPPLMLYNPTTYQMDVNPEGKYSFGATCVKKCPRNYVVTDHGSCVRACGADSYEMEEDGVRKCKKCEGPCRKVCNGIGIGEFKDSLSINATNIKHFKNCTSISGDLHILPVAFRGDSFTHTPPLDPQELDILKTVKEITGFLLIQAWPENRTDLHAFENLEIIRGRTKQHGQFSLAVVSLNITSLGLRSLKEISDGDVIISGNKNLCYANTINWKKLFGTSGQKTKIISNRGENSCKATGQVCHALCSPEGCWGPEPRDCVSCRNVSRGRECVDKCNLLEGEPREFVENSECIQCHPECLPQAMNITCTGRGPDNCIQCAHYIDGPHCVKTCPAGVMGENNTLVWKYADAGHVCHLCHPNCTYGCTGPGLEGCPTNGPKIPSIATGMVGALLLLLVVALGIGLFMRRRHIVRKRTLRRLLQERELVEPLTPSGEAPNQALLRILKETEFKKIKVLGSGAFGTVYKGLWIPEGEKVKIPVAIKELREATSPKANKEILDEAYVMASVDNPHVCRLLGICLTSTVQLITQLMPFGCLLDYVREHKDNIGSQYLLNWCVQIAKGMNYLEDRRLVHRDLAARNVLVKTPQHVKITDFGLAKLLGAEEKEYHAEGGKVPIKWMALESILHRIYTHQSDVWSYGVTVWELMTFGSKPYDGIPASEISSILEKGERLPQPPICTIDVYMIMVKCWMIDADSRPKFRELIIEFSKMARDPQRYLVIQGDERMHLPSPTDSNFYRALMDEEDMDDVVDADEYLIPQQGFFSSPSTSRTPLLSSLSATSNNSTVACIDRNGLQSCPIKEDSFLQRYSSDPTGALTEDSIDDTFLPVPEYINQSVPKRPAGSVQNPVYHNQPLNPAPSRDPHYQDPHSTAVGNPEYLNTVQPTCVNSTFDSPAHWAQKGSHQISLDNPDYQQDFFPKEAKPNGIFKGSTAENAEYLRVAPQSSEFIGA
Experimental: as §1

[8] = molecular target: T8, ERBB2 (Homo sapiens, UniProt P04626); conditions: LL6 at 10 μM; read-out: Percent Control
T8 construct: purchased DiscoverX KINOMEscan
Experimental: as §1

[9] = molecular target: T9, ERBB4 (Homo sapiens, UniProt Q15303); conditions: LL6 at 10 μM; read-out: Percent Control
T9 construct: purchased DiscoverX KINOMEscan
Experimental: as §1

[10] = molecular target: T10, ERK1 (Homo sapiens, UniProt P27361); conditions: LL6 at 10 μM; read-out: Percent Control
T10 construct: purchased DiscoverX KINOMEscan
Experimental: as §1

[11] = molecular target: T11, FGFR2 (Homo sapiens, UniProt P21802); conditions: LL6 at 10 μM; read-out: Percent Control
T11 construct: purchased DiscoverX KINOMEscan
T11 sequence (P21802 22-821): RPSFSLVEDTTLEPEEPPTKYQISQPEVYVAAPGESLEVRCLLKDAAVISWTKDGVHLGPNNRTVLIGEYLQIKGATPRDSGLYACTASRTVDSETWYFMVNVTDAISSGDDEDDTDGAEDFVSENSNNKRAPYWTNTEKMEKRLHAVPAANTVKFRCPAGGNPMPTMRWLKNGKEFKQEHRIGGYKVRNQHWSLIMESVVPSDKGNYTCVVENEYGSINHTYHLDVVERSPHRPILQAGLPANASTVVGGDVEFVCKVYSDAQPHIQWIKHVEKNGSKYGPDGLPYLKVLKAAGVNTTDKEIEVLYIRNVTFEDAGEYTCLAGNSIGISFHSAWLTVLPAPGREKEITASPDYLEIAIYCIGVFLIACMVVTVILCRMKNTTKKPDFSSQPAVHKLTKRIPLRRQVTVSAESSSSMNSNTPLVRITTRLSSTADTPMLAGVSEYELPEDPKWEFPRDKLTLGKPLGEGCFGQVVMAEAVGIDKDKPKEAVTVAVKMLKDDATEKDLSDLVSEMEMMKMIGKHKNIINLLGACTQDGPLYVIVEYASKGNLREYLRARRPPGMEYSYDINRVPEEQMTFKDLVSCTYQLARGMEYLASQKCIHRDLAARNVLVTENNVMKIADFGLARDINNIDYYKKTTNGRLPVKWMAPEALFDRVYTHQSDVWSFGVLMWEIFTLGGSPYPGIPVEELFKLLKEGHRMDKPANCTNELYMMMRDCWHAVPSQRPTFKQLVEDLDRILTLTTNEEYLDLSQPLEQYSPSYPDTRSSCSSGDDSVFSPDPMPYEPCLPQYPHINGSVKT
Experimental: as §1

[12] = molecular target: T12, FGFR3 (Homo sapiens, UniProt P22607); conditions: LL6 at 10 μM; read-out: Percent Control
T12 construct: purchased DiscoverX KINOMEscan
Experimental: as §1

[13] = molecular target: T13, IKK-alpha (Homo sapiens, UniProt O15111); conditions: LL6 at 10 μM; read-out: Percent Control
T13 construct: purchased DiscoverX KINOMEscan
Experimental: as §1

[14] = molecular target: T14, JAK2(JH1domain-catalytic) (Homo sapiens, UniProt O60674); conditions: LL6 at 10 μM; read-out: Percent Control
T14 construct: JAK2(JH1domain-catalytic); purchased DiscoverX KINOMEscan
Experimental: as §1

[15] = molecular target: T15, JNK1 (Homo sapiens, UniProt P45983); conditions: LL6 at 10 μM; read-out: Percent Control
T15 construct: purchased DiscoverX KINOMEscan
Experimental: as §1

[16] = molecular target: T16, JNK2 (Homo sapiens, UniProt P45984); conditions: LL6 at 10 μM; read-out: Percent Control
T16 construct: purchased DiscoverX KINOMEscan
Experimental: as §1

[17] = molecular target: T17, KIT(D816V) (Homo sapiens, UniProt P10721, D816V); conditions: LL6 at 10 μM; read-out: Percent Control
T17 construct: purchased DiscoverX KINOMEscan
Experimental: as §1

[18] = molecular target: T18, LKB1 (Homo sapiens, UniProt Q15831); conditions: LL6 at 10 μM; read-out: Percent Control
T18 construct: purchased DiscoverX KINOMEscan
Experimental: as §1

[19] = molecular target: T19, MAP3K4 (Homo sapiens, UniProt Q9Y6R4); conditions: LL6 at 10 μM; read-out: Percent Control
T19 construct: purchased DiscoverX KINOMEscan
Experimental: as §1

[20] = molecular target: T20, MAPKAPK2 (Homo sapiens, UniProt P49137); conditions: LL6 at 10 μM; read-out: Percent Control
T20 construct: purchased DiscoverX KINOMEscan
Experimental: as §1

[21] = molecular target: T21, MKNK1 (Homo sapiens, UniProt Q9BUB5); conditions: LL6 at 10 μM; read-out: Percent Control
T21 construct: purchased DiscoverX KINOMEscan
Experimental: as §1

[22] = molecular target: T22, PAK4 (Homo sapiens, UniProt O96013); conditions: LL6 at 10 μM; read-out: Percent Control
T22 construct: purchased DiscoverX KINOMEscan
Experimental: as §1

[23] = molecular target: T23, PCTK1 (Homo sapiens, UniProt Q00536); conditions: LL6 at 10 μM; read-out: Percent Control
T23 construct: purchased DiscoverX KINOMEscan
Experimental: as §1

[24] = molecular target: T24, PIK3CG (Homo sapiens, UniProt P48736); conditions: LL6 at 10 μM; read-out: Percent Control
T24 construct: purchased DiscoverX KINOMEscan
Experimental: as §1

[25] = molecular target: T25, PIM2 (Homo sapiens, UniProt Q9P1W9); conditions: LL6 at 10 μM; read-out: Percent Control
T25 construct: purchased DiscoverX KINOMEscan
T25 sequence (Q9P1W9 whole entry): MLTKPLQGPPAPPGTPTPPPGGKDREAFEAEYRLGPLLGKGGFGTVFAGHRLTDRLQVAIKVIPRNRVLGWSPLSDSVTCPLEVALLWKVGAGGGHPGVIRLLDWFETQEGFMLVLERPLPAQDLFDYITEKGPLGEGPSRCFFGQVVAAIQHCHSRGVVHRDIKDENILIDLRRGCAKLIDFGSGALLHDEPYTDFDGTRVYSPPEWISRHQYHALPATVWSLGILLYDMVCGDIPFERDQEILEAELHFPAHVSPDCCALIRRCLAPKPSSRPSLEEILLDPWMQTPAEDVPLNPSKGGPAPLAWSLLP
Experimental: as §1

[26] = molecular target: T26, PIM3 (Homo sapiens, UniProt Q86V86); conditions: LL6 at 10 μM; read-out: Percent Control
T26 construct: purchased DiscoverX KINOMEscan
Experimental: as §1

[27] = molecular target: T27, PLK1 (Homo sapiens, UniProt P53350); conditions: LL6 at 10 μM; read-out: Percent Control
T27 construct: purchased DiscoverX KINOMEscan
Experimental: as §1

[28] = molecular target: T28, PLK3 (Homo sapiens, UniProt Q9H4B4); conditions: LL6 at 10 μM; read-out: Percent Control
T28 construct: purchased DiscoverX KINOMEscan
Experimental: as §1

[29] = molecular target: T29, PRKCE (Homo sapiens, UniProt Q02156); conditions: LL6 at 10 μM; read-out: Percent Control
T29 construct: purchased DiscoverX KINOMEscan
Experimental: as §1

[30] = molecular target: T30, RET (Homo sapiens, UniProt P07949); conditions: LL6 at 10 μM; read-out: Percent Control
T30 construct: purchased DiscoverX KINOMEscan
Experimental: as §1

[31] = molecular target: T31, ROCK2 (Homo sapiens, UniProt O75116); conditions: LL6 at 10 μM; read-out: Percent Control
T31 construct: purchased DiscoverX KINOMEscan
Experimental: as §1

[32] = molecular target: T32, RSK2(Kin.Dom.1-N-terminal) (Homo sapiens, UniProt P51812); conditions: LL6 at 10 μM; read-out: Percent Control
T32 construct: RSK2(Kin.Dom.1-N-terminal); purchased DiscoverX KINOMEscan
T32 sequence (P51812 1-397 limits assumed): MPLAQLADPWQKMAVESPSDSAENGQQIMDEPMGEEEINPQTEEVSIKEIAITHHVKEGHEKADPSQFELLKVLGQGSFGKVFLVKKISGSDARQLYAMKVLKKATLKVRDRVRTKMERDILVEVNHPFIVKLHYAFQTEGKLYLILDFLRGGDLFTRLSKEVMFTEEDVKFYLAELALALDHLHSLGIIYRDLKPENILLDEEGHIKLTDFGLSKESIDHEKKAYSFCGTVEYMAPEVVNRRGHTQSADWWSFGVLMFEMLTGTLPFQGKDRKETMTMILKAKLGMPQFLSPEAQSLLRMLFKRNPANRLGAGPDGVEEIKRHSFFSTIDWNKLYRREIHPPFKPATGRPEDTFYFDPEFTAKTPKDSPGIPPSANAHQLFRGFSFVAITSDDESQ
Experimental: as §1

[33] = molecular target: T33, SRPK3 (Homo sapiens, UniProt Q9UPE1); conditions: LL6 at 10 μM; read-out: Percent Control
T33 construct: purchased DiscoverX KINOMEscan
Experimental: as §1

[34] = molecular target: T34, TIE2 (Homo sapiens, UniProt Q02763); conditions: LL6 at 10 μM; read-out: Percent Control
T34 construct: purchased DiscoverX KINOMEscan
Experimental: as §1

[35] = molecular target: T35, TRKA (Homo sapiens, UniProt P04629); conditions: LL6 at 10 μM; read-out: Percent Control
T35 construct: purchased DiscoverX KINOMEscan
Experimental: as §1

[36] = molecular target: T36, TSSK1B (Homo sapiens, UniProt Q9BXA7); conditions: LL6 at 10 μM; read-out: Percent Control
T36 construct: purchased DiscoverX KINOMEscan
T36 sequence (Q9BXA7 whole entry): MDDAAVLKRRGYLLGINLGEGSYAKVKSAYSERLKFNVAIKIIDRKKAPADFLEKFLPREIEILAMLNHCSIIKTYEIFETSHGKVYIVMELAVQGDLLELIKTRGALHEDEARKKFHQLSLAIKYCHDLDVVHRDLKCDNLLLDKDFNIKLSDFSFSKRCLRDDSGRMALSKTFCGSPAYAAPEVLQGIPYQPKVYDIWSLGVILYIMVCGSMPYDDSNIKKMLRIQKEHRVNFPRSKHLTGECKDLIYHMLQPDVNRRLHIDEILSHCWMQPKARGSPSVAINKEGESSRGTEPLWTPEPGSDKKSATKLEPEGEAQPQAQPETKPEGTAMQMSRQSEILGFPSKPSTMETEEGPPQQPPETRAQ
Experimental: as §1

[37] = molecular target: T37, TYK2(JH1domain-catalytic) (Homo sapiens, UniProt P29597); conditions: LL6 at 10 μM; read-out: Percent Control
T37 construct: TYK2(JH1domain-catalytic); purchased DiscoverX KINOMEscan
T37 sequence (P29597 889-1187 limits assumed): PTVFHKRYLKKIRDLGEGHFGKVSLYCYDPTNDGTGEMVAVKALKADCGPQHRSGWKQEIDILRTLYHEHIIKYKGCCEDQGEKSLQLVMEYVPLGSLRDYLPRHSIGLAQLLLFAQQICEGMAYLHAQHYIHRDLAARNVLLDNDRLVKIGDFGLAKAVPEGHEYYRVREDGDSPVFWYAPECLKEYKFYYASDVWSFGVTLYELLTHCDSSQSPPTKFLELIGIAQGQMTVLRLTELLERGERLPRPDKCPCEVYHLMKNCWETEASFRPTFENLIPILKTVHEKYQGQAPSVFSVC
Experimental: as §1

[38] = molecular target: T38, ULK2 (Homo sapiens, UniProt Q8IYT8); conditions: LL6 at 10 μM; read-out: Percent Control
T38 construct: purchased DiscoverX KINOMEscan
Experimental: as §1

[39] = molecular target: T39, VEGFR2 (Homo sapiens, UniProt P35968); conditions: LL6 at 10 μM; read-out: Percent Control
T39 construct: purchased DiscoverX KINOMEscan
Experimental: as §1

[40] = molecular target: T40, p38-beta (Homo sapiens, UniProt Q15759); conditions: LL6 at 10 μM; read-out: Percent Control
T40 construct: purchased DiscoverX KINOMEscan
Experimental: as §1

remaining binding at 10 µM [1]: 40%
remaining binding at 10 µM [2]: 100%
remaining binding at 10 µM [3]: 13%
remaining binding at 10 µM [4]: 56%
inhibition at 10 µM ([5]; CSF1R, LL6 at 10 µM): > 65%
remaining binding at 10 µM ([5]; LL6 at 10 μM, read-out: Percent Control): 29%
remaining binding at 10 µM [6]: 55%
remaining binding at 10 µM [7]: 82%
remaining binding at 10 µM [8]: 100%
remaining binding at 10 µM [9]: 40%
remaining binding at 10 µM [10]: 100%
remaining binding at 10 µM [11]: 62%
remaining binding at 10 µM [12]: 89%
remaining binding at 10 µM [13]: 100%
remaining binding at 10 µM [14]: 100%
remaining binding at 10 µM [15]: 100%
remaining binding at 10 µM [16]: 67%
remaining binding at 10 µM [17]: 66%
remaining binding at 10 µM [18]: 90%
remaining binding at 10 µM [19]: 75%
remaining binding at 10 µM [20]: 100%
remaining binding at 10 µM [21]: 100%
remaining binding at 10 µM [22]: 97%
remaining binding at 10 µM [23]: 78%
remaining binding at 10 µM [24]: 63%
remaining binding at 10 µM [25]: 100%
remaining binding at 10 µM [26]: 100%
remaining binding at 10 µM [27]: 100%
remaining binding at 10 µM [28]: 90%
remaining binding at 10 µM [29]: 100%
remaining binding at 10 µM [30]: 81%
remaining binding at 10 µM [31]: 100%
remaining binding at 10 µM [32]: 25%
remaining binding at 10 µM [33]: 84%
remaining binding at 10 µM [34]: 62%
remaining binding at 10 µM [35]: 100%
remaining binding at 10 µM [36]: 100%
remaining binding at 10 µM [37]: 100%
remaining binding at 10 µM [38]: 96%
remaining binding at 10 µM [39]: 65%
remaining binding at 10 µM [40]: 65%
Compound: Nc1ncnc2c1c(-c1ccc(Cl)cc1)nn2CCn1cc(COc2ccc(Nc3nccc(Nc4cnc5ccccc5c4)n3)cc2)nn1 [LL6]
Kd ([5]; CSF1R, 11-point dose response, duplicate): did not show dose-dependent inhibition curves
